Values belong to the compound of their own block, whether it stands above or below them.
What was measured:
[1] = system: platelets; settings: concentrations which do not bring the TXA2/PGH2 receptor into play; cited from earlier work
[2] = system: TXA2 /PGH2 receptor; settings: cited from earlier work
[3] = system: TXA2 /PGH2 receptor; settings: whole platelets or solubilized platelet membranes; cited from earlier work
[4] = system: platelets; settings: cited from earlier work
[5] = system: platelets; settings: concentrations which do not bring the TXA2/PGH2 receptor into play; cited from earlier work; remark: listed apart in the source
[6] = system: alpha2 -adrenergic receptor; settings: platelet membranes; cited from earlier work
[7] = system: brain; test: Capture by the brain, in rats, of lyso-PC's; assay type: in vivo; settings: 20-day-old rat, intravenous, attached to albumin; compared with lyso-PC's comprising 18:1, 18:2 and 20:4
Description: (§1) FIG. 3 represents the variation of the radio-activity recovered in the total lipids: A from the brain, B from the kidney, C from the heart and D from the liver, after injecting tritiated DHA in free form (black circle) or in the form of 2-DHA-1-lyso-PC (black triangle).
(§2) The animal studied is a 20-day-old rat in which the cerebral lipid metabolism is at its peak.
(§3) The lyso-PC's are labelled on the fatty acid and the choline, attached to albumin and administered intravenously (50). […] It therefore appears that the lyso-PCDHA's attached to albumin constitute a particularly preferred form of supply of DHA to the developing brain.

[8] = system: kidney; test: Capture by the kidney, in rats, of lyso-PCDHA and non-esterified DHA; assay type: in vivo; settings: 20-day-old rat, intravenous; lyso-PCDHA vs non-esterified DHA
Description: as §1, §2, §3

[9] = system: brain; test: Distribution of the radioactivity between the lipid classes of the brain after intravenous injection of lyso-PCDHA or non-esterified DHA; assay type: in vivo, rat; settings: for radioactivity in OTHERS of the brain / radioactivity in AG of the brain / radioactivity in DG of the brain / radioactivity in LN of the brain / radioactivity in Lyso-PC of the brain / radioactivity in MG of the brain / radioactivity in PC of the brain / radioactivity in PE of the brain / radioactivity in PS of the brain / radioactivity in Pi of the brain / radioactivity in TG of the brain: injection of Lyso-PCDHA
Description: as §2, §3

[10] = system: liver; test: Capture by the liver, in rats, of lyso-PCDHA and non-esterified DHA; assay type: in vivo; settings: 20-day-old rat, intravenous; lyso-PCDHA vs non-esterified DHA
Description: as §1, §2, §3

[11] = system: heart; test: Capture by the heart, in rats, of lyso-PCDHA and non-esterified DHA; assay type: in vivo; settings: 20-day-old rat, intravenous; lyso-PCDHA vs non-esterified DHA
Description: as §1, §2, §3

[12] = incorporation in vitro into the platelet lipid reserves, by means of albumin

Structure (SMILES): CC/C=C\C/C=C\C/C=C\C/C=C\C/C=C\CCCC(=O)O [20:5n-3, eicosapentanoic acid]
effect on platelet aggregation induced by thrombin [1]: none of these fatty acids affects the platelet aggregation
affinity of U 46.619 for its receptor [2, 12]: decrease in the affinity of the agonist for its receptor
inhibition of specific binding of U 46.619 to washed platelets ([2]; non-esterified fatty acid): competitively inhibit
alteration of the TXA2 /PGH2 receptor [3]: specifically alter the TXA2 /PGH2 receptor
aggregability of the platelets in response to U 46.619 [4, 12]: loss of aggregability of the platelets in response to U 46.619
inhibition of platelet aggregation induced by U 46.619 ([4]; non-esterified fatty acid): competitively inhibit platelet aggregation induced by U 46.619
effect on platelet aggregation induced by ionophore A 23187 [5]: none of these fatty acids affects the platelet aggregation
effect on binding of yohimbine to alpha2-adrenergic receptor [6]: do not modify binding of yohimbine

capture by the brain [7]: particularly well captured by the brain
Structure (SMILES): CC/C=C\C/C=C\C/C=C\C/C=C\C/C=C\C/C=C\CCC(=O)OC(CO)COP(=O)([O-])OCC[N+](C)(C)C (stereo not shown) [lyso-PCDHA, 1-lyso-2-DHA-glycerophosphocholine]
capture by the kidney [8]: captures the two forms of supply in essentially the same manner
esterification in the phosphatidylethanolamines ([9]; brain, rat, after injection): very rapidly, a differential esterification is produced in the phosphatidylethanolamines
reacylation of DHA in the phosphatidylcholines ([9]; brain, rat, first stages after the injection): low and is visible only in the first stages after the injection
radioactivity in OTHERS of the brain [9]: 3.7 % of the radioactivity of the total lipids
radioactivity in AG of the brain ([9]; 2.5 min): 15.3 % of the radioactivity of the total lipids
radioactivity in DG of the brain ([9]; 2.5 min): 10.8 % of the radioactivity of the total lipids
radioactivity in LN of the brain ([9]; 2.5 min): 29.3 % of the radioactivity of the total lipids
radioactivity in Lyso-PC of the brain ([9]; 2.5 min): 4.1 % of the radioactivity of the total lipids
radioactivity in MG of the brain ([9]; 2.5 min): 2.2 % of the radioactivity of the total lipids
radioactivity in PC of the brain ([9]; 2.5 min): 25.6 % of the radioactivity of the total lipids
radioactivity in PE of the brain ([9]; 2.5 min): 28.2 % of the radioactivity of the total lipids
radioactivity in PS of the brain ([9]; 2.5 min): 3.9 % of the radioactivity of the total lipids
radioactivity in Pi of the brain ([9]; 2.5 min): 8.9 % of the radioactivity of the total lipids
radioactivity in TG of the brain ([9]; 2.5 min): 1.0 % of the radioactivity of the total lipids
radioactivity in AG of the brain ([9]; 5 min): 21.2 % of the radioactivity of the total lipids
radioactivity in DG of the brain ([9]; 5 min): 9.3 % of the radioactivity of the total lipids
radioactivity in LN of the brain ([9]; 5 min): 35.3 % of the radioactivity of the total lipids
radioactivity in Lyso-PC of the brain ([9]; 5 min): 0.4 % of the radioactivity of the total lipids
radioactivity in MG of the brain ([9]; 5 min): 2.3 % of the radioactivity of the total lipids
radioactivity in OTHERS of the brain ([9]; 5 min): 11.4 % of the radioactivity of the total lipids
radioactivity in PC of the brain ([9]; 5 min): 17.8 % of the radioactivity of the total lipids
radioactivity in PE of the brain ([9]; 5 min): 26.3 % of the radioactivity of the total lipids
radioactivity in PS of the brain ([9]; 5 min): 5.3 % of the radioactivity of the total lipids
radioactivity in Pi of the brain ([9]; 5 min): 3.4 % of the radioactivity of the total lipids
radioactivity in TG of the brain ([9]; 5 min): 2.5 % of the radioactivity of the total lipids
radioactivity in AG of the brain ([9]; 6.5 min): 17.2 % of the radioactivity of the total lipids
radioactivity in DG of the brain ([9]; 6.5 min): 9.4 % of the radioactivity of the total lipids
radioactivity in LN of the brain ([9]; 6.5 min): 31.6 % of the radioactivity of the total lipids
radioactivity in Lyso-PC of the brain ([9]; 6.5 min): 1.2 % of the radioactivity of the total lipids
radioactivity in MG of the brain ([9]; 6.5 min): 2.7 % of the radioactivity of the total lipids
radioactivity in PC of the brain ([9]; 6.5 min): 26.2 % of the radioactivity of the total lipids
radioactivity in PE of the brain ([9]; 6.5 min): 28.1 % of the radioactivity of the total lipids
radioactivity in PS of the brain ([9]; 6.5 min): 5.3 % of the radioactivity of the total lipids
radioactivity in Pi of the brain ([9]; 6.5 min): 3.7 % of the radioactivity of the total lipids
radioactivity in TG of the brain ([9]; 6.5 min): 2.3 % of the radioactivity of the total lipids
radioactivity in AG of the brain ([9]; 15 min): 13.9 % of the radioactivity of the total lipids
radioactivity in DG of the brain ([9]; 15 min): 5.8 % of the radioactivity of the total lipids
radioactivity in LN of the brain ([9]; 15 min): 23.7 % of the radioactivity of the total lipids
radioactivity in Lyso-PC of the brain ([9]; 15 min): 0.2 % of the radioactivity of the total lipids
radioactivity in MG of the brain ([9]; 15 min): 1.8 % of the radioactivity of the total lipids
radioactivity in OTHERS of the brain ([9]; 15 min): 2.6 % of the radioactivity of the total lipids
radioactivity in PC of the brain ([9]; 15 min): 26.8 % of the radioactivity of the total lipids
radioactivity in PE of the brain ([9]; 15 min): 38.9 % of the radioactivity of the total lipids
radioactivity in PS of the brain ([9]; 15 min): 4.6 % of the radioactivity of the total lipids
radioactivity in Pi of the brain ([9]; 15 min): 3.2 % of the radioactivity of the total lipids
radioactivity in TG of the brain ([9]; 15 min): 2.3 % of the radioactivity of the total lipids
radioactivity in AG of the brain ([9]; 30 min): 11 % of the radioactivity of the total lipids
radioactivity in DG of the brain ([9]; 30 min): 4 % of the radioactivity of the total lipids
radioactivity in LN of the brain ([9]; 30 min): 17.8 % of the radioactivity of the total lipids
radioactivity in Lyso-PC of the brain ([9]; 30 min): 0 % of the radioactivity of the total lipids
radioactivity in MG of the brain ([9]; 30 min): 0.7 % of the radioactivity of the total lipids
radioactivity in OTHERS of the brain ([9]; 30 min): 3.8 % of the radioactivity of the total lipids
radioactivity in PC of the brain ([9]; 30 min): 24.1 % of the radioactivity of the total lipids
radioactivity in PE of the brain ([9]; 30 min): 46.4 % of the radioactivity of the total lipids
radioactivity in PS of the brain ([9]; 30 min): 5.0 % of the radioactivity of the total lipids
radioactivity in Pi of the brain ([9]; 30 min): 2.6 % of the radioactivity of the total lipids
radioactivity in TG of the brain ([9]; 30 min): 2.1 % of the radioactivity of the total lipids
radioactivity in AG of the brain ([9]; 60 min): 10.0 % of the radioactivity of the total lipids
radioactivity in DG of the brain ([9]; 60 min): 2.6 % of the radioactivity of the total lipids
radioactivity in LN of the brain ([9]; 60 min): 16.7 % of the radioactivity of the total lipids
radioactivity in Lyso-PC of the brain ([9]; 60 min): 0 % of the radioactivity of the total lipids
radioactivity in MG of the brain ([9]; 60 min): 0.4 % of the radioactivity of the total lipids
radioactivity in OTHERS of the brain ([9]; 60 min): 5.3 % of the radioactivity of the total lipids
radioactivity in PC of the brain ([9]; 60 min): 24.9 % of the radioactivity of the total lipids
radioactivity in PE of the brain ([9]; 60 min): 49.2 % of the radioactivity of the total lipids
radioactivity in PS of the brain ([9]; 60 min): 3.9 % of the radioactivity of the total lipids
radioactivity in Pi of the brain ([9]; 60 min): 2.6 % of the radioactivity of the total lipids
radioactivity in TG of the brain ([9]; 60 min): 1.4 % of the radioactivity of the total lipids
capture by the liver [10]: do not capture the lyso-PCDHA's as effectively as the non-esterified DHA
capture by the heart [11]: do not capture the lyso-PCDHA's as effectively as the non-esterified DHA

Source: patent publication US5654290A, “Polyunsaturated fatty acid based drugs” (Institut National de la Sante et de la Recherche Medicale, priority 1992, dated 1997)
